Literature values as cited in paper PMC8018465, “Antimicrobial activities of a small molecule compound II-6s against oral streptococci” (Journal of Oral Microbiology, 2021).

Tested on: methicillin-resistant Staphylococcus aureus (MRSA)
Design: method as in PMID 30940910
Settings: cited from earlier work

CC(C)(Cc1ccc2ccccc2c1)NC[C@@H](O)COc1cccc(Cl)c1C#N [NPS-2143, reference compound]
antimicrobial activity against MRSA: bacteriostatic activity
